Data from patent publication US8686051B2, “Pharmaceutical composition for treatment of diabetic complications” (VLife Sciences Technologies Pvt. Ltd., priority 2007, dated 2014).
Where a name gives a salt, the structure may show the parent alone.

Key:
[1] = biological target: T1, purified human recombinant aldose reductase (Homo sapiens, UniProt P15121); experiment: Aldose reductase (AR) inhibition, spectrophotometric NADPH oxidation assay; format: biochemical; conditions: for IC50: read-out: Aldose reductase inhibitory IC50
T1 construct: made in house; host or cells: E. coli
Description: For enzyme inhibition studies, purified human recombinant aldose reductase (expressed in E. coli) was used for testing the aldose reductase (AR) inhibitory activity of beta adrenergic antagonists by a spectrophotometric method, using glyceraldehydes as substrate, (Mol. Vis. 2004, 10, 148-154). Recombinant human aldose reductase was purified from bacterial cultures. Enzyme from expression cultures was extracted and purified essentially as described previously (J Biol Chem 1992; 267: 24833-40) with the exception that affinity chromatography over AffiGel Blue (Bio-Rad) was used as a final purification step. AR activity was assayed according to the method described by Hayman and Kinoshita (J Biol Chem 1965; 240: 877-82). The assay mixture in 1 ml contained 50 μM potassium phosphate buffer pH 6.2, 0.4 mM lithium sulfate, 5 μM 2-mercaptoethanol, 10 μM DL-glyceraldehyde, 0.1 μM NADPH, and enzyme preparation (rat lens or recombinant enzyme). Appropriate blanks were employed for corrections. The assay mixture was incubated at 37° C. and initiated by the addition of NADPH at 37° C. The change in the absorbance at 340 nm due to NADPH oxidation was followed in a Cary Bio 100 spectrophotometer. For inhibition studies concentrated stocks of the Beta adrenergic antagonists, timolol, esmolol, sotalol, nebivolol, carvedilol, metoprolol and labetalol were prepared in water. Various concentrations of Beta adrenergic antagonists, as test compounds, were added to the assay mixture and incubated for 5-10 minutes before initiating the reaction by NADPH as described above. The percent of inhibition with test compounds was calculated considering the AR activity in the absence of inhibitor was 100%. The concentration of each test sample giving 50% inhibition (IC50) was then estimated.

[2] = tested on: collagen (hydroxyproline); experiment: Measurement of collagen (tissue hydroxyproline by HPLC); format: in vivo, rat; parameters: Collagen production: unit not given here
Description: The synthesis of the 19 known collagens occurs within the cell, as it does for other proteins. The collagen molecule is characterized by the repeating sequence Gly-X-Y, with X often being proline and Y often being hydroxyproline. Hydroxyproline is the end product of collagen breakdown. For this reason, tissue hydroxyproline level is an indirect and objective variable of tissue collagen production. In many experimental studies, hydroxyproline has been used to assess tissue collagen production.
Collagen levels in the tissue were measured by use of high performance liquid chromatography (HPLC) for separating and quantitating the levels of hydroxyproline from the rat tissue. A reverse-phase Nova-Pak C18 column and solvent system (140 mM sodium acetate, 0.05% triethylamine (TEA), 6% acetonitrile) were used, resulting in complete separation of hydroxyproline. Recovery of standards ranged from 89 to 103% and intra-assay variability was <8%. Additionally, [^3H]hydroxyproline measurements were used to examine changes in collagen turnover in the rat labeled with [^3H]proline and “chased” in the presence of 10 mM unlabeled proline.

[3] = tested on: formation of sorbitol in red blood cells (RBC); experiment: Estimation of sorbitol in red blood cells incubated with 30 mM glucose; format: cell-based
Protocol: The cells were incubated with 30 mM glucose in vitro. Sorbitol was estimated by the method of reported by Malone, et al. Diabetes; 1980; 29: 861-864.

[4] = tested on: nitric oxide (nitrate/nitrite); experiment: Measurement of nitric oxide (nitrite/nitrate) in tissue by chemiluminescence; format: in vivo, rat; conditions: total versus controls
Protocol: Fresh tissue (approximately 0.2 g) was added to 1 ml cold homogenizing buffer (20 mmol/l HEPES-KOH, pH 7.9; 25% glycerol; 420 mmol/l NaCl; 1.5 mmol/l MgCl2; 0.2 mmol/l EDTA; 0.5 mmol/l dithiothreitol; 0.2 mmol/l phenylmethylsulphonyl fluoride). The buffered tissues were homogenized at maximum speed for 5 seconds and cooled in ice-water for 30 seconds. This procedure was repeated five times to ensure complete tissue destruction.
Two volumes of 100% cold ethanol were added to the homogenized samples; these were vortexed and incubated on ice for 30 minutes. The homogenate was centrifuged at 12,000×g for 5 minutes at 4° C., and the supernatant transferred to a new tube on ice for NO measurement.
A rapid-response chemiluminescence analyzer was used to measure total gas phase NO (nitrate/nitrite). NO gas reacts with ozone, producing energy in the form of light, and the light is proportional to the quantity of NO present. The emission was measured using a luminometer to determine NO concentration.
The sample tube was securely connected to a Zero Gas Filter (Sievers Instruments) and room air passed through the device for 5 minutes. […] The sample gas was then exposed to the ozone in the reaction vessel to form activated nitrogen dioxide (NO2), which was detected using a red-sensitive photomultiplier tube, and the output recorded using an integrating pen recorder. […]

[5] = tested on: wound on dorsal skin of diabetic Wistar rats; experiment: Diabetic wound healing in streptozocin-diabetic rats, topical treatment; format: in vivo; conditions: for Wound diameter: diabetic rats, topical
Protocol: Wistar rats were kept in standard autoclaved rodent cages with ad libitum food (Harland Tekland Irradiated Rodent Diet) and autoclaved water. The rats were housed on Harlan Tek-chip pelleted paper in static micro isolators maintained at 72° F., 60% humidity, and a 12 hour light cycle. The animals were kept at the facility for 10 days to get accustomed to the environment, after the arrival from the vendor. Diabetes was induced in the rats by intraperitoneal injection of 50 mg/kg body weight of streptozocin on 5 consecutive days. The wound was created on the rat by using a contortive scratcher to make a 2 mm incision with 0.57-0.62 mm depth on the dorsal skin of the animal. The area was shaved and sanitized with normal lugol's iodine prior to use of the scratcher.
Esmolol hydrochloride (10%) was administered three times daily or the standard treatment control, by smearing the agent directly onto the wound. The positive control used was platelet derived growth factor that is commercially available. The treatment was continued until the wounds of the treated mice were completely healed. […]
Several wound healing parameters were measured on the day 3, day 7, day 12 and day 19 of the creation of the wound. These parameters are reported in separate tables below. The wound size and weight of the rats was measured every alternate day. Specifically, the length and width of the wound were measured by use of micro vernier calipers, and the tensile strength at the edge of the wound was also recorded every other day. The wound diameter was measured by the same investigator on day 3, 12, 19 by the use of an electronic digital vernier caliper (B&D, Pomanus, N.J.). The caliper was calibrated just before the measurement by adjusting the zero error. […]
The area for evaluation was cut clean by an Eppendorf 10 size scalpel and the tissue was preserved in 10% of phosphate buffered formalin solution. The tissues were removed from this formalin solution and immersed in 100% of ethanol for 6 hours. The tissue were again removed and preserved for evaluation in 10% Bouins solution. […]
The quantity of exudation from wound was measured by the use of a micropipette (Eppendorf). […]
The adherence is the strength by which the two ends of the wound are attached together and measured by a Velcro index meter.
Fluid accumulation was measured by volume of fluid obtained from wound using micro pipette as described in Table 8. […]

In the case of `COC(=O)CCc1ccc(OCC(O)CNC(C)C)cc1` (centres unmarked) [Esmolol, esmolol hydrochloride], the “aldose reductase inhibition (in words)” value [1] is reported as “effective aldose reductase inhibition”, the IC50 [1] is reported as 160 µM and the Collagen production ([2]; Day 3) is reported as 124. For the same compound, the Collagen production ([2]; Day 7) was 287, the Collagen production ([2]; Day 12) was 325 and the Collagen production ([2]; Day 19) was 288. For the same compound, the Collagen production ([2]; Total) was 1024, the “Collagen production, % Increase” value ([2]; total versus controls) was 68% and the “Sorbitol concentration in RBC” value ([3]; RBC under 30 mM glucose + 150 μM of esmolol) was 16.16 µg/mL. For the same compound, the “NO increase, % Increase” value [4] was 53%, the “Ease of removal from wounds” value ([5]; Day 3) was 2.6 +/− 0.2 and the “Evaluation of biopsy wounds in diabetic rats” value (“Evaluation of biopsy wounds” below) ([5]; Day 3) was 1.3 +/− 0.3. The Exudation ([5]; Day 3) was 1.2 ± 0.2 µL, the Film transparency ([5]; Day 3) was 1.7 +/− 0.3 and the Flexibility ([5]; Day 3) was 2.3 +/− 0.2. For the same compound, the Fluid accumulation ([5]; Day 3) was 2.3 +/− 0.4, the Wound adherence ([5]; Day 3) was 2.6 +/− 0.4 and the “Wound diameter: degree of contraction” value ([5]; Day 3) was 12.17 +/− 5.8%. For the same compound, the Wound diameter ([5]; Day 3) was 1.28 +/− 0.12 MM, the “Ease of removal from wounds” value ([5]; Day 7) was 2.8 +/− 0.3 and the “Evaluation of biopsy wounds” value ([5]; Day 7) was 1.3 +/− 0.2. For the same compound, the Exudation ([5]; Day 7) was 2.7 ± 0.5 µL, the Film transparency ([5]; Day 7) was 2.3 +/− 0.4 and the Flexibility ([5]; Day 7) was 2.4 +/− 0.5. For the same compound, the Fluid accumulation ([5]; Day 7) was 2.7 +/− 0.5, the Wound adherence ([5]; Day 7) was 3.3 +/− 0.3 and the “Ease of removal from wounds” value ([5]; Day 12) was 2.7 +/− 0.5. The “Evaluation of biopsy wounds” value ([5]; Day 12) was 1.4 +/− 0.3, the Exudation ([5]; Day 12) was 3.5 ± 0.6 µL and the Film transparency ([5]; Day 12) was 2.6 +/− 0.6. The Flexibility ([5]; Day 12) was 3.5 +/− 0.6, the Fluid accumulation ([5]; Day 12) was 2.6 +/− 0.7 and the Wound adherence ([5]; Day 12) was 3.9 +/− 0.5. The “Wound diameter: degree of contraction” value ([5]; Day 12) was 41.86 +/− 13.2%, the Wound diameter ([5]; Day 12) was 1.37 +/− 0.17 MM and the “Ease of removal from wounds” value ([5]; Day 19) was 2.5 +/− 0.4. For the same compound, the “Evaluation of biopsy wounds” value ([5]; Day 19) was 1.5 +/− 0.3, the Exudation ([5]; Day 19) was 4.9 ± 0.2 µL and the Film transparency ([5]; Day 19) was 3.3 +/− 0.4. The Flexibility ([5]; Day 19) was 3.9 +/− 0.8, the Fluid accumulation ([5]; Day 19) was 2.5 +/− 0.5 and the Wound adherence ([5]; Day 19) was 4.7 +/− 0.5. The “Wound diameter: degree of contraction” value ([5]; Day 19) was 98.64 +/− 9.6%, the Wound diameter ([5]; Day 19) was 0.79 +/− 0.28 MM and the “Ease of removal from wounds” value ([5]; Total) was 10.6 +/− 1.4. For the same compound, the “Evaluation of biopsy wounds” value ([5]; Total) was 5.5 +/− 1.1, the Exudation ([5]; Total) was 12.3 ± 1.1 µL and the Film transparency ([5]; Total) was 9.9 +/− 1.1. The Flexibility ([5]; Total) was 12.1 +/− 2.9, the Fluid accumulation ([5]; Total) was 10.1 +/− 1.2 and the Wound adherence ([5]; Total) was 14.5 +/− 0.9. The Period for epithelization ([5]; rat, in vivo) was 9.8 ± 0.8 days, the Scar formation ([5]; rat, in vivo) was 1.3 +/− 0.4 Score and the “Time taken for complete wound closure” value ([5]; rat, in vivo) was 19.6 ± 2.2 days.
For `OC(CNCC(O)C1CCc2cc(F)ccc2O1)C1CCc2cc(F)ccc2O1` (centres unmarked) [Nebivolol, nebivolol hydrochloride], the IC50 [1] was over 350 µM.
In the case of `CC(C)(C)NC[C@H](O)COc1nsnc1N1CCOCC1` [Timolol, timolol maleate], the “aldose reductase inhibition (in words)” value [1] is reported as “effective aldose reductase inhibition”, the IC50 [1] is reported as 250 µM and the “Sorbitol concentration in RBC” value ([3]; RBC under 30 mM glucose + 250 μM of timolol) is reported as 17.34 µg/mL.
Compound `CC(C)NCC(O)c1ccc(NS(C)(=O)=O)cc1` (centres unmarked) [Sotalol, sotalol hydrochloride] has an IC50 [1] of over 350 µM.
With `CC(C)NCC(O)COc1cccc2ccccc12.Cl` (centres unmarked) [Propranolol, propranolol hydrochloride] the “aldose reductase inhibition (in words)” value [1] was “effective aldose reductase inhibition”, the IC50 [1] was 350 µM and the “Sorbitol concentration in RBC” value ([3]; RBC under 30 mM glucose + 350 μM of propranolol) was 18.25 µg/mL.
`COCCc1ccc(OCC(O)CNC(C)C)cc1` (centres unmarked) [Metoprolol, metoprolol tartrate] showed an IC50 [1] of over 350 µM.
With `CC(CCc1ccccc1)NCC(O)c1ccc(O)c(C(N)=O)c1` (centres unmarked) [Labetalol, labetalol hydrochloride] the IC50 [1] was over 350 µM.
`COc1ccccc1OCCNCC(O)COc1cccc2[nH]c3ccccc3c12` (centres unmarked) [Carvedilol, carvedilol] gave an IC50 [1] of over 350 µM.
